# According to patent US7166761B2, “Method of screening PTPζ activity promoter or inhibitor” (priority 2000, dated 2007):
# Where two headings read alike, the source gives them in different places.
# B1: pleiotrophin: a heparin-binding secretory protein of 18 kD that binds to extracellular regions of PTPζ (protein, UniProt P21246 33-168, looked up)
# Pleiotrophin: GKKEKPEKKVKKSDCGEWQWSVCVPTSGDCGLGTREGTRTGAECKQTMKTQRCKIPCNWKKQFGAECKYQFQAWGECDLNTALKTRTGSLKRALHNAECQKTVTISKPCGKLTKPKPQAESKKKKKEGKKQEKMLD
# Legend:
# [1] = tested on: striatal synaptosomes; conditions: [3H] DA 1 to 10 nM, 30 degree C; for Km: read-out: [3H] DA uptake Km, mean±SEM of three
# Description: Dopamine (DA) uptake was measured as follows. Striatal synaptosome tissue pools (3 animals/pool) were homogenized in 100 volume (v/w) of 0.32 M sucrose in a teflonglass homogenizer and centrifuged at 12,000 rpm for 10 minutes. The crude synaptosomal pellet was resuspended in 0.32 M sucrose at a concentration of 30 mg/ml (original wet weight) and divided into 30 μl aliquots. Each aliquot was added with 270 μl of Krebs-Ringer phosphate buffer with increasing concentrations of [^3H] DA (final 1–10 nM, […], Amersham Pharmacia Biotech UK Ltd.). After incubating the resultant solution for 3 minutes at 30° C., uptake was quickly terminated by filtration through Whatman GF/C glass filters. The filters were rinsed three times with 2.5 ml ice-cold 0.32 M sucrose and measured by using a liquid scintillation counter at an efficiency of 50%. Blank values were measured in the presence of 10 μM GBR12909.
# [^3H] DA was mixed with striatal synaptosomes and [^3H] DA uptake into tissues was measured (the above-mentioned method A-6-1). The homogenate of the striatal synaptosomes was incubated for 2 minutes at 30° C. in the presence of [^3H] DA (1 to 10 nM).
# [2] = tested on: mice; experiment: Effects of psychostimulant drugs on locomotor activity; format: in vivo, mouse
# Description: The effects of psychostimulant drugs on locomotor activity were measured in a clear acrylic chamber (40×40×40 cm) by measuring animal movements with an electromagnetic activity monitoring system (sensor unit 0603, scanner 1099, Panlab). Before drug administration, the animals were acclimated to the measurement circumstance for at least 90 minutes. The animals were then administered with a stimulant drug, methamphetamine (METH) (1 mg/kg, s.c.), GBR12909 (2 mg/kg, i.p.), apomorphine (1 mg/kg, s.c.), or p-chloro-amphetamine (2 mg/kg, i.p.), and saline as administered to a control, and locomotor activity was monitored for the next 60 minutes.
# [3] = tested on: nucleus accumbens (NAC); experiment: In vivo microdialysis of nucleus accumbens: METH-induced DA release and locomotion; parameters: species or system mouse
# Description: Mice were anaesthetized with sodium pentobarbital (80 mg/kg i.p.) and placed in a stereotaxic apparatus. A hole was drilled through the skull and an intracerebral guide cannula (CMA 11, CMA/Microdialysis AB) was inserted into the nucleus accumbens (NAC) and fixed with dental cement. The stereotaxic coordinates for implantation of the guide cannula in both wild-type and PTPζ-deficient mice were: anterior, +1.1 mm, ventral, +3.6 mm, lateral, +1.0 mm to the surface of bregma. 24 hours after the surgery, mice were chained to a counterbalance lever arm attached to a locomotor activity chamber (30×30 cm) with an infrared monitoring apparatus (SCANET LC-10, Toyo Sangyo Co., Ltd.). Dialysis probes (membrane length 1 mm; external diameter 0.24 mm; cuprophane CUP 11, CMA/Microdialysis AB) were inserted through the guide cannula and perfusion was performed with artificial cerebrospinal fluid (ACSF), pH 7.4, (in mM; 145.ONaCl, 2.7 KCl, 1.2 CaCl2, 1.0 MgCl2, and 2.0 NaH2PO4) at a flow rate of 2 μl/min. Perfusates were collected from freely moving animals every 20 minutes in a tube containing 20 μl of 0.4 M HClO4 (CMA 170). Samples were collected and assayed using HPLC-ECD as described above except for the following modifications: the column was MCM C-18 (4.6×150 mm) and the buffer contained 75 mM NaH2PO4, 1.7 mM 1-octanesulfonic acid sodium salt, 0.1 mM triethylamine, 25 μM EDTA·2Na and 10% acetonitrile, at flow rate of 0.55 ml/min at 30° C. The electrode was set at +320 mV. METH administration (1 mg/kg s.c.) or local infusion of high K^+ solution (in mM: 47.7 NaCl, 100.0 KCl, 1.2 CaCl2, 1.0 MgCl2, and 2.0 NaH2PO4, pH 7.4) through the microdialysis probe was performed after the state became steady.
# [4] = tested on: mouse gastric epithelium; experiment: Gastric ulcer formation caused by oral pleiotrophin; format: in vivo; conditions: 48 hours
# Description: The role of PTPζ in gastric ulcer formation caused by pleiotrophin was examined as follows. After a mouse (female) of 4 weeks old was starved for 24 hours (fed water ad libitum), pleiotrophin (Peptide Institute, Inc.) was orally administered to the mouse with a sound. 48 hours later, gastric specimens were prepared and the surface of inside wall of stomach was observed by a stereomicroscope, and then pathologic specimens were prepared by hematoxylen eosin staining and analyzed.
molecule,measurement,setting,value
"NCCc1ccc(O)c(O)c1 [[^3H] DA, dopamine]",[3H] DA uptake Vmax,[1]; PTPζ+/+ mice,45.74 ± 2.77 pmol/3 min/mg
same,[3H] DA uptake Vmax,[1]; PTPζ−/− mice,58.70 ± 1.03 pmol/3 min/mg
same,Km,[1]; PTPζ+/+ mice,0.109 ± 0.00245 µM
same,Km,[1]; PTPζ−/− mice,0.147 ± 0.0113 µM
CN1CCc2cccc3c2[C@H]1Cc1ccc(O)c(O)c1-3 [apomorphine],"locomotor activity, responsiveness of PTPζ-deficient mice","[2]; 2 mg/kg, s.c., total counts during 60 minutes after administration",normal
CN[C@@H](C)Cc1ccccc1 [methamphetamine],"locomotor response, PTPζ−/− compared to wild-type mice","[2]; 1 mg/kg, s.c., electromagnetic sensors, n=9 per genotype",significantly attenuated locomotor response
same,"DA release in NAC, PTPζ-deficient compared to wild-type mice","[3]; PTPζ−/− mice (n=6), 1 mg/kg, s.c., microdialysis",markedly diminished DA release
same,"METH-enhanced locomotion, PTPζ−/− compared to wild-type mice","[3]; freely moving animals during microdialysis, infrared monitoring apparatus",statistically attenuated
same,extracellular DA in nucleus accumbens,"[3]; wild-type mice (n=7), 1 mg/kg, s.c., microdialysis",definitely increased
CC(N)Cc1ccc(Cl)cc1 (centres unmarked) [p-chloro-amphetamine],"locomotor activity, sensitivity of PTPζ-deficient mice","[2]; 2 mg/kg, i.p., total counts during 60 minutes after administration, 5-HT liberator",hyposensitive
B1,hematoxylen eosin staining of gastric specimens,[4]; PTPζ-deficient mice,totally normal
same,epithelial damage on gastric epithelium under a stereomicroscope,[4]; PTPζ−/− mice,no damage was observed
same,epithelial damage on gastric epithelium under a stereomicroscope,[4]; wild-type mice,Profuse bleeding
same,hematoxylen eosin staining of gastric specimens,[4]; wild-type mice,obvious damage
